Data taken from US8067439B2, “Biphenyl compounds useful as muscarinic receptor antagonists” (Theravance, Inc., priority 2004, dated 2011).

Target: T1, M3 muscarinic receptor subtype (hM3) (Homo sapiens, UniProt P20309)
T1 construct: expressed in transfected cells
Test: Radioligand binding assay ([3H]-NMS displacement, CHO cell membranes)
Conditions: [3H]-NMS 1 nM
Method: CHO cell lines stably expressing cloned human hM1, hM2, hM3 and hM4 muscarinic receptor subtypes, respectively, were grown to near confluency in medium consisting of HAM's F-12 supplemented with 10% FBS and 250 μg/mL Geneticin. The cells were grown in a 5% CO2, 37° C. incubator and lifted with 2 mM EDTA in dPBS. Cells were collected by 5 minute centrifugation at 650×g, and cell pellets were either stored frozen at −80° C. or membranes were prepared immediately. For membrane preparation, cell pellets were resuspended in lysis buffer and homogenized with a Polytron PT-2100 tissue disrupter (Kinematica AG; 20 seconds×2 bursts). Crude membranes were centrifuged at 40,000×g for 15 minutes at 4° C. […] The protein concentration of the membrane suspension was determined by the method described in Lowry, O. et al., Journal of Biochemistry 193:265 (1951). […]
Radioligand binding assays were performed in 96-well microtiter plates in a total assay volume of 100 μL. […] Filter plates were rinsed three times with wash buffer (10 mM HEPES) to remove unbound radioactivity. […] The plates were then counted in a PerkinElmer Topcount liquid scintillation counter (PerkinElmer Inc., Wellesley, Mass.). Binding data were analyzed by nonlinear regression analysis with the GraphPad Prism Software package (GraphPad Software, Inc., San Diego, Calif.) using the one-site competition model. […]

T1 sequence (P20309 whole entry): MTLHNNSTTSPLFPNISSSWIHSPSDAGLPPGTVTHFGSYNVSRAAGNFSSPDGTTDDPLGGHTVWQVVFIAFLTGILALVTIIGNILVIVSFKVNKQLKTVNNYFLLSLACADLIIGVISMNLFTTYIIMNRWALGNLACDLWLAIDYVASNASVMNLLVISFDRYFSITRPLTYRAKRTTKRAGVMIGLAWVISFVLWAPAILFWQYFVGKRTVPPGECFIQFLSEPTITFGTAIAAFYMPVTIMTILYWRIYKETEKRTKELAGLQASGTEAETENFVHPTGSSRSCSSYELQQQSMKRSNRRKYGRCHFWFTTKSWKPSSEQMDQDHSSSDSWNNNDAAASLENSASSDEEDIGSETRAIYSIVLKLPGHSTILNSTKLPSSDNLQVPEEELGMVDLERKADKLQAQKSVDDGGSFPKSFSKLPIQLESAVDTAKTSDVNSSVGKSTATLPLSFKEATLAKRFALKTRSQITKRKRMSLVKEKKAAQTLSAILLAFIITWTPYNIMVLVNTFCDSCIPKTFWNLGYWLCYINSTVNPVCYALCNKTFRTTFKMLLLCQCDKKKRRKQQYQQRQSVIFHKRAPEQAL

CN(CCN1CCC(OC(=O)Nc2ccccc2-c2ccccc2)CC1)C(=O)CCCCCN1CCC(C(N)=O)CC1 [Example 1, Biphenyl-2-ylcarbamic Acid 1-(2-{[6-(4-Carbamoylpiperidin-1-yl)hexanoyl]methylamino}ethyl)piperidin-4-yl Ester] gave a Ki of under 5 nM.
